Source: ChEMBL document CHEMBL6071172, “Addressing the Intracellular Vestibule of the Plasmodial Lactate Transporter PfFNT by p-Substituted Inhibitors Amplifies In Vitro Activity” (J Med Chem, 2024)
The source made the active and inactive calls. The rule behind the calls is not given here.

Tests used:
[1] = Dissociation constant, pKa of compound; assay type: physicochemical
[2] = Inhibition of Plasmodium falciparum FNT extracted from Saccharomyces cerevisiae W303-1A jen1 delta ady2 delta assessed as reduction in [1-14C]-L-lactate uptake preincubated for 20 mins followed by substrate addition by TriCrab liquid scintillation counter
[3] = Binding affinity to C-terminal GFP tagged Plasmodium falciparum FNT extracted from HEK293 cell membrane assessed as inhibition constant measured 10 times for 5 sec in presence of BH267.meta-DY647 tracer by fluorescence cross-correlation spectroscopic analysis; assay type: cell membranes
Plasmodium falciparum [4] = test: Antiplasmodial activity against Plasmodium falciparum 3D7 infected in erythrocytes assessed as inhibition of parasite growth at 50 nM incubated for 48 hrs with media replenishment with compound after 24 hrs by LSR II FACS analysis relative to control; assay type: functional; details: 3D7, Erythrocyte
HEK293 [5] = test: Cytotoxicity against HEK293 cells assessed as change in redox capability of cytosol upto 100 uM by resazurin dye based fluorescence microplate reader; assay type: toxicity, cell-based; details: human
HEK293 [6] = test: Cytotoxicity against HEK293 cells assessed as reduction in nuclei count at >10 uM by Hoechst 33342 staining based microscopic analysis; assay type: toxicity, cell-based; details: human, hek293, 10 µM
Plasmodium falciparum [7] = test: Antiplasmodial activity against Plasmodium falciparum 3D7 infected in SCID mouse model assessed as decrease in parasite load at 150 mg/kg/day, po administered for 4 days; assay type: functional, organism-based; details: time 4.0 day
[8] = Metabolic stability in pooled human liver microsomes assessed as intrinsic clearance at 1 uM by LC-MS/MS analysis; assay type: ADME, Microsome; details: read-out: CLH
HepG2 [9] = test: Cytotoxicity against human HepG2 cells assessed as change in ATP level upto 100 uM by CellTiter-Glo assay; assay type: toxicity, cell-based; details: hepg2, 100 µM
HEK293 [10] = test: Cytotoxicity against HEK293 cells assessed as change in ATP level upto 100 uM by CellTiter-Glo assay; assay type: toxicity, cell-based; details: human, hek293, 100 µM
[11] = Drug concentration in blood of SCID mouse model infected with plasmodium falciparum 3D7 at 50 mg/kg/day, po administered for 4 days; assay type: ADME, organism-based; details: time 4 day, read-out: Ct
HepG2 [12] = test: Cytotoxicity against human HepG2 cells assessed as change in redox capability of cytosol upto 100 uM by CellTiter-Glo assay; assay type: toxicity, cell-based
HepG2 [13] = test: Cytotoxicity against human HepG2 cells assessed as reduction in nuclei count at >10 uM by Hoechst 33342 staining based microscopic analysis; assay type: toxicity, cell-based; details: hepg2, 10 µM
[14] = Half-life in SCID mouse model infected with plasmodium falciparum 3D7 at 50 mg/kg/day, po administered for 4 days; assay type: ADME, organism-based; details: in vivo, time 4 day
Plasmodium falciparum [15] = test: Antiplasmodial activity against Plasmodium falciparum 3D7 infected in erythrocytes incubated for 48 hrs with media replenishment with compound after 24 hrs by LSR II FACS analysis; assay type: functional, organism-based; details: 3D7, Erythrocyte
Plasmodium berghei = test: Antiplasmodial activity against Plasmodium berghei ANKA infected in malarial mouse model assessed as elimination of parasitemia at 3 to 30 mg/kg/day, po administered for 4 days by flow cytometric analysis relative to control; assay type: functional; details: dose 3-30 mg/kg/day, time 4 day

Structure (SMILES): FC(F)(F)C(F)(F)c1nc(-c2cccnc2)n[nH]1
- pKa [1]: 8

Structure (SMILES): FC(F)(F)C(F)(F)c1cc(-c2cccnc2)n[nH]1
- pKa [1]: 10

Structure (SMILES): COc1ccc(C(=O)/C=C(\O)C(F)(F)C(F)(F)F)c(O)c1
- IC50 [2]: 170 nM
- Ki [3]: 83 nM
- inhibition at 0.05 µM (Plasmodium falciparum [4]): < 10%

Structure (SMILES): CCCNc1ccc(C(=O)/C=C(\O)C(F)(F)C(F)(F)F)cn1
- Activity (HEK293 [5]): Non-Toxic
- Activity (HEK293 [6]): Non-Toxic
- Activity (Plasmodium falciparum [7]): Active
- CLint scaled at 1 µM [8]: 462 mL/min/kg
- Activity (HepG2 [9]): Non-Toxic
- Activity (HEK293 [10]): Non-Toxic
- concentration at 96 h [11]: ~2000 ng/mL
- Activity (HepG2 [12]): Non-Toxic
- Activity (HepG2 [13]): Non-Toxic
- half-life [14]: 2 h

Structure (SMILES): CC(=O)Nc1ccc(C(=O)/C=C(\O)C(F)(F)C(F)(F)F)cn1
- Activity (HEK293 [5]): Non-Toxic
- Activity (HEK293 [6]): Non-Toxic
- EC50 (Plasmodium falciparum [15]): < 100 nM
- CLint scaled at 1 µM [8]: 10.6 mL/min/kg
- Activity (HepG2 [9]): Non-Toxic
- Activity (HEK293 [10]): Non-Toxic
- Activity (HepG2 [12]): Non-Toxic
- Activity (HepG2 [13]): Non-Toxic

Structure (SMILES): O=C(/C=C(\O)C(F)(F)C(F)(F)F)c1ccc(NCc2ccccc2)nc1
- EC50 (Plasmodium falciparum [15]): < 100 nM

Structure (SMILES): O=C(/C=C(\O)C(F)(F)C(F)(F)F)c1cccnc1
- Activity (Plasmodium berghei): >99.7%
- CLint scaled at 1 µM [8]: 3.98 mL/min/kg
